# According to patent US12419896B2, “Compositions and dosage forms for oral delivery” (RHODES TECHNOLOGIES, priority 2018, dated 2025):
# Columns and labels:
# [1] = most pharmacological tests; Ophthalmic Res. (1992) 24:142-149; cited from earlier work
# [2] = versus Δ^9-THC; oxidation to cannabinol, shelf life; cited from earlier work
# [3] = cited from earlier work
# [4] = Miscibility of sesame oil in 40% IPA/HFA 134a; assay type: physicochemical; details: based on 10% w/v dronabinol in sesame oil
# Experimental: In some embodiments, formulations deliver between 0.25 mg and 2 mg dose of dronabinol after application. Table 4 details the % w/w dronabinol required in the canister to achieve such doses for different actuator volumes available ([…]). The miscibility of sesame oil in 40% IPA/HFA 134a has been determined to be 7.2% w/w, equivalent to 0.8% dronabinol, based on 10% w/v dronabinol in sesame oil. Therefore, the dose of dronabinol (mg) produced from each of the difference actuator volumes based on a level of 0.8% w/w dronabinol in canisters has been presented in Table 5.
compound,measurement,setting,value
"CCCCCc1cc(O)c2c(c1)OC(C)(C)[C@@H]1CC=C(C)C[C@@H]21 (relative stereo) [Δ^8-THC, (−)-trans-Δ^8-tetrahydrocannabinol]",Potency compared with Δ^9-THC,[1],less potent
same,Stability compared with Δ^9-THC,[2],more stable
"CCCCCc1cc(O)c2c(c1)OC(C)(C)C1CCC(C)=CC21 (single isomer, unassigned; (-)) [dronabinol, (−)-trans-Δ^9-tetrahydrocannabinol]",Solubility in water,[3],insoluble
same,Level of dronabinol equivalent to the sesame oil miscibility limit,[4],0.8%
